Here are results for five compounds from ChEMBL document CHEMBL5543058, “The application of PROTAC in HDAC” (Eur J Med Chem, 2023).

For test [1], the system named is A549. The test can be described thus: Antiproliferative activity against human A549 cells assessed as inhibition of cell growth measured after 48 hrs by SRB assay. The format is functional.
The next test has as its system Jurkat. The test can be described thus: Growth inhibition of human Jurkat cells. It counts as functional.
The next test deals with T1, Histone deacetylase 8 (Homo sapiens, UniProt Q9BY41).
T1 sequence (Q9BY41 whole entry): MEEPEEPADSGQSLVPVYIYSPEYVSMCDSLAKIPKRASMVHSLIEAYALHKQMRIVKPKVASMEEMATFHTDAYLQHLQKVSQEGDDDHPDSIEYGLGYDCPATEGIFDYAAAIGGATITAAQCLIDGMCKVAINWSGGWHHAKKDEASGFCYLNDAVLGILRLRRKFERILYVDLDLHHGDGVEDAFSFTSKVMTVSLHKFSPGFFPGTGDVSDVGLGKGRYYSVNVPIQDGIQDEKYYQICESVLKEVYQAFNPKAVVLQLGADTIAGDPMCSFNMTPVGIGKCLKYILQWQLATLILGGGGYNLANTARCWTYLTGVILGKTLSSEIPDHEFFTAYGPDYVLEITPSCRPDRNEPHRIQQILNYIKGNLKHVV
As to the kind of experiment: Inhibition of HDAC8 (unknown origin) using acetyl-Gly-Ala-(N-acetyl-Lys)-amino-4-methylcoumarin as substrate measured after 30 mins by fluorescence assay.

Test [2] relates to A549. As to the kind of experiment: Growth inhibition of human A549 cells incubated for 72 hrs by MTT assay. It counts as functional.
Test [3] addresses T2, Histone deacetylase 8 (Homo sapiens) (UniProt Q9BY41).
T2 sequence (whole entry): T1 sequence (Q9BY41 whole entry)
The test can be described thus: Induction of HDAC8 degradation in human A549 cells assessed as maximum degradation at 0.1 to 160 uM measured after 10 hrs by Western blot analysis relative to control. It counts as cell-based. As to conditions: dose 0.1-160 µM.

The target of test [4] is Protein cereblon/Histone deacetylase 8 (Homo sapiens, UniProt Q9BY41+Q96SW2). As to the kind of experiment: PROTAC activity at HDAC8/CRBN in human A549 cells assessed as degradation of HDAC8 by Western blot analysis. It counts as cell-based.
Sequence of Protein cereblon/Histone deacetylase 8 (Q96SW2 whole entry, one chain of several): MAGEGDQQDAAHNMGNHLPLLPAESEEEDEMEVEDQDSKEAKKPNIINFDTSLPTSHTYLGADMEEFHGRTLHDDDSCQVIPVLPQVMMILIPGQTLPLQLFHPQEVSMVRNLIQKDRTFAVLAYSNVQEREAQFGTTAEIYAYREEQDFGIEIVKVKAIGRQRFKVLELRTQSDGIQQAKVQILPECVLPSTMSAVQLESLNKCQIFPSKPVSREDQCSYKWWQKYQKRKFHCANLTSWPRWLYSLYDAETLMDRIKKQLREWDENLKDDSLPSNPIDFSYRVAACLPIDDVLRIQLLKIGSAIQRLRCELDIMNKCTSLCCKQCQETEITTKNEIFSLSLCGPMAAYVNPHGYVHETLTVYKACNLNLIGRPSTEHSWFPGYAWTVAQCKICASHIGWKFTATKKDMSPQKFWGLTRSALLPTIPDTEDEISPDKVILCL
Test [5] has as its target von Hippel-Lindau disease tumor suppressor/Histone deacetylase 1 (Homo sapiens, UniProt Q13547+P40337). The test can be described thus: Protac activity at VHL/LSD1/HDAC1/CoREST complex interaction in human HCT-116 cells assessed as HDAC1 degradation by fluorescence based assay. It counts as cell-based.
Test [6] concerns the target von Hippel-Lindau disease tumor suppressor/Histone deacetylase 2 (Homo sapiens, UniProt Q92769+P40337). As to the kind of experiment: Protac activity at VHL/LSD1/HDAC2/CoREST complex interaction in human HCT-116 cells assessed as induction of HDAC2 degradation by fluorescence based assay. The format is cell-based.
For test [7], the target named is von Hippel-Lindau disease tumor suppressor/Histone deacetylase 3 (Homo sapiens, UniProt O15379+P40337). As to the kind of experiment: Protac activity at VHL/LSD1/HDAC3/CoREST complex interaction in human HCT-116 cells assessed as induction of HDAC3 degradation by fluorescence based assay. It counts as cell-based.
Sequence of von Hippel-Lindau disease tumor suppressor/Histone deacetylase 3 (O15379 whole entry): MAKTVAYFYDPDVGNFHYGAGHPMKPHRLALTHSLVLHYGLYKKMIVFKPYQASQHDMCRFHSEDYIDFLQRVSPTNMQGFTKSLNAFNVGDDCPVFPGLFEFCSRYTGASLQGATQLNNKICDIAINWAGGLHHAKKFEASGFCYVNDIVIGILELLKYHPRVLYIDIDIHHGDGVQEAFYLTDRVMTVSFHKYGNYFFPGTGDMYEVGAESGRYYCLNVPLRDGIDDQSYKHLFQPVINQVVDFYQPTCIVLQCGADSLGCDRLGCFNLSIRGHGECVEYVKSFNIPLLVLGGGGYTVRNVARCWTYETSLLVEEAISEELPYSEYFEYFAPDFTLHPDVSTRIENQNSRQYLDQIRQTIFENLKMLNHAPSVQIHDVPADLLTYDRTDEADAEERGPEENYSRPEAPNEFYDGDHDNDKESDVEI
Sequence of von Hippel-Lindau disease tumor suppressor/Histone deacetylase 3 (P40337 whole entry): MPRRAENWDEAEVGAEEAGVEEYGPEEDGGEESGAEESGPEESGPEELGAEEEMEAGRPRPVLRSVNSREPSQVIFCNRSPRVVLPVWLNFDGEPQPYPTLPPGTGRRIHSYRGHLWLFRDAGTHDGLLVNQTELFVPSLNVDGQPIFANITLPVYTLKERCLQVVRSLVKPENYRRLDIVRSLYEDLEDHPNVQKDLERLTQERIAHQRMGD

Sequence of von Hippel-Lindau disease tumor suppressor/Histone deacetylase 1 (Q13547 whole entry): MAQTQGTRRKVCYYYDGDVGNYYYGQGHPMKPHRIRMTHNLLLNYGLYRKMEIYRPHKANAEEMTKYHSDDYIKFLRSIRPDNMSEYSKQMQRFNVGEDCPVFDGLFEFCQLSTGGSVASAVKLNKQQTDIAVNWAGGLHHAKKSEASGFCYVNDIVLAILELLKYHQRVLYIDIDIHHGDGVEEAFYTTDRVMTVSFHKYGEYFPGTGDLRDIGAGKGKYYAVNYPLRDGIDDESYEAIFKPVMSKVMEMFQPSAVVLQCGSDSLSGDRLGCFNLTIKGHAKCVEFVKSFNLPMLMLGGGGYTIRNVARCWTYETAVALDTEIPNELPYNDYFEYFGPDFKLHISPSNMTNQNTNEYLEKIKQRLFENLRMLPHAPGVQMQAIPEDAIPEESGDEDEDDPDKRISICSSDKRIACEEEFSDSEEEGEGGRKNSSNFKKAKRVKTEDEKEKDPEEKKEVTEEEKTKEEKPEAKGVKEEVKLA
Sequence of von Hippel-Lindau disease tumor suppressor/Histone deacetylase 1 (P40337 whole entry): as the sequence (P40337 whole entry) above
Sequence of von Hippel-Lindau disease tumor suppressor/Histone deacetylase 2 (Q92769 whole entry): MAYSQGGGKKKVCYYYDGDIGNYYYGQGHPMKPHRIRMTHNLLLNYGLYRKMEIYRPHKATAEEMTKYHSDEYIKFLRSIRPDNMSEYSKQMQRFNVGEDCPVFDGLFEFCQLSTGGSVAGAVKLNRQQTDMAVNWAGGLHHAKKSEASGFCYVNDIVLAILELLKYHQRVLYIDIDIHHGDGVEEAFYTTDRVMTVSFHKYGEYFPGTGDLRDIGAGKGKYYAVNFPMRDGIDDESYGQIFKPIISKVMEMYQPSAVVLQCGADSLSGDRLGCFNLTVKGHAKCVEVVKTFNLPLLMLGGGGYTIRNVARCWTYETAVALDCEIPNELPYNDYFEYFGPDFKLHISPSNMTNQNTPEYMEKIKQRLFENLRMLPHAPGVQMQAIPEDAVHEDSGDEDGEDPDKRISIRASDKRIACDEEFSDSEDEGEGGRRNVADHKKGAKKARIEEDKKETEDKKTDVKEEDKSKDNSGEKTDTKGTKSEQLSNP
Sequence of von Hippel-Lindau disease tumor suppressor/Histone deacetylase 2 (P40337 whole entry): as the sequence (P40337 whole entry) above

As for `COc1ccc(Cn2ccc3ccc(C(=O)NO)cc32)cc1`, the GI50 with A549 [1] is 15.8 µM.

Turning to `O=C(NO)c1cccc(-n2cc(CSc3ccccc3)nn2)c1`, in the test on Jurkat, the GI50 is 7.09 µM. Besides, the IC50 against Histone deacetylase 8 is 0.053 µM.

In the test with Jurkat, `O=C1CCC(N2C(=O)c3cccc(NCCCCCCCCCCCNC(=O)c4cccc(SCc5cn(-c6cccc(C(=O)NO)c6)nn5)c4)c3C2=O)C(=O)N1` (stereo unspecified) showed a 50% growth inhibitory concentration (GI50) of 0.78 µM. At Histone deacetylase 8, this compound came in with a concentration for half-maximal inhibition (IC50) of 0.372 µM.

In turn, `O=C1CCC(N2C(=O)c3cccc(NCc4cn(CCOCCOc5ccc(Cn6ccc7ccc(C(=O)NO)cc76)cc5)nn4)c3C2=O)C(=O)N1` (stereo unspecified) had a GI50 in the test with A549 [2] of 9.55 µM. In addition, the Emax in test [3] was 95%. Besides, the DC50 in test [4] stood at 0.58 µM.

As to `Cc1ncsc1-c1ccc(CNC(=O)[C@@H]2C[C@@H](O)CN2C(=O)[C@@H](NC(=O)CCCCCCCCCCC(=O)Nc2ccc(C(=O)Nc3ccccc3N)cc2)C(C)(C)C)cc1`, the DC50 in test [5], in [6] and in test [7] was 1 µM throughout.
